The text below walks through data of PMC10320002, “In vitro antiproliferative, anti-inflammatory effects and molecular docking studies of natural compounds isolated from Sarcocephalus pobeguinii (Hua ex Pobég)” (Frontiers in Pharmacology, 2023).

Several values for one entry are separate records, joined by “and”; a condition that tells them apart may be missing. Equal entries are not always repeated.

One may read the IC50 as the concentration needed to halve the response being measured.

One data set has as its system MCF-7 cells. Put plainly: MTT antiproliferation assay, MCF-7. The format is cell-based, human. Particulars: for IC50: Homo sapiens, MCF7, 48 h, MTT; for SI values MCF7: IC50 of non-cancerous Vero cells divided by IC50 of MCF-7. On the procedure:
(§1) Cancerous cell lines (MCF-7: human breast adenocarcinoma cells; HepG2: human hepatocellular carcinoma cells; Caco-2: human epithelial colorectal adenocarcinoma cells; A549: human epithelial lung adenocarcinoma cells), obtained from the American Type Culture Collection (ATCC) (Rockville, MD, United States of America), were cultured in Dulbecco’s Modified Eagle’s Medium (DMEM) high glucose (4.5 g/L) containing L-glutamine (4 mM) and sodium-pyruvate (Hyclone™) supplemented with 10% (v/v) fetal bovine serum (FBS) (Capricorn Scientific GmbH, South America), and incubated at 37°C with 5% CO2 in a humidified environment. African green monkey (Vero) kidney cells (also obtained from ATCC), a non-cancerous cell line, were grown in DMEM high glucose (4.5 g/L) containing L-glutamine (Lonza, Belgium) and supplemented with 5% FBS (Capricorn Scientific GmbH, South America) and 1% gentamicin (Virbac, RSA) in the same environment as cancer cells. The RAW 264.7 murine macrophage cells (obtained from ATCC) were cultured in DMEM high glucose (4.5 g/L) containing L-glutamine (Lonza, Belgium), supplemented with 10% FBS (Capricorn Scientific GmbH, South America) and 1% penicillin/streptomycin/fungizone (PSF) solution, and kept at 37°C in a 5% CO2 humidified environment.
(§2) The cancerous and non-cancerous cells were seeded at a density of 10^4 cells per well in 96-well microtiter plates, and they were incubated overnight at 37°C with 5% CO2 in a 5% CO2 humidified environment in order to allow the attachment of cells at the bottom of the plates. Then, the cells were exposed to increasing concentrations of compounds (100, 50, 25, 10 and 5 μg/mL) dissolved in dimethyl sulfoxide (DMSO) and further diluted in fresh culture medium. In this assay, the final concentration of DMSO in the culture medium was 0.5% used as negative control while doxorubicin hydrochloride (Pfizer, United States of America) was used as a positive control. The culture plates were incubated for 48 h at 37°C in a 5% CO2 humidified environment, after which the culture medium was discarded, and replaced by 200 µL of fresh culture medium with 30 µL of 3-(4,5-dimethylthiazol-2-yl)-2,5-diphenyl-2H-tetrazolium bromide (MTT) (5 mg/mL) dissolved in phosphate buffered saline ([Mosmann, 1983]). After 4 h of incubation, the medium was gently removed, and the formazan crystals were solubilized in 50 µL of DMSO. The absorbance was measured at 570 nm after shaking for 1 min on a microplate reader (Synergy Multi-Mode Reader, BioTek, Winooski, United States of America).
(§3) The cell viability rate was determined at each concentration of the compound as a percentage of cells treated with DMSO at 0.5% used as negative control. […] The selectivity index (Supporting Material) values were calculated for each compound by dividing the IC50 of non-cancerous cells by the IC50 of cancerous cells in the same units ([Mfotie Njoya et al., 2018]; [Mfotie Njoya et al., 2020]).

Another data set deals with HepG2 cells. As to the kind of experiment: MTT antiproliferation assay, HepG2. The format is cell-based, human. Particulars: for IC50: Homo sapiens, HepG2, 48 h, MTT; for SI values HepG2: IC50 of non-cancerous Vero cells divided by IC50 of HepG2. On the procedure: as §1, §2, §3
(Tetrazolium dyes change colour on reduction, which living cells bring about.)

The next data set concerns Vero cells. As to the kind of experiment: MTT antiproliferation assay, non-cancerous Vero cells. The format is cell-based, African green monkey. Particulars: for IC50: Chlorocebus sabaeus, Vero, 48 h, MTT. On the procedure: as §1, §2, §3
The test system of another data set is A549 cells. As to the kind of experiment: MTT antiproliferation assay, A549. The format is cell-based, human. Particulars: for IC50: Homo sapiens, A549, 48 h, MTT; for SI values A549: IC50 of non-cancerous Vero cells divided by IC50 of A549. On the procedure:
as §1, §2, §3

For the next data set, the system named is RAW 264.7 cells. As to the kind of experiment: MTT cell viability of LPS-stimulated RAW 264.7 cells. Format: cell-based, murine. Particulars: 100 μg/mL. The protocol:
as §1, with “The RAW 264.7 murine macrophage cells (obtained from ATCC) were cultured in DMEM high glucose (4.5 g/L) containing L-glutamine (Lonza, Belgium), supplemented with 10% FBS (Capricorn Scientific GmbH, South America) and 1% penicillin/streptomycin/fungizone (PSF) solution, and kept at 37°C in a 5% CO2 humidified environment.” left out
Nitric oxide (NO) production was evaluated in lipopolysaccharide (LPS)-stimulated RAW 264.7 cells by measuring the influence of tested compounds on the accumulation of nitrite, an indicator of NO in the cell supernatant, which can be detected with Griess reagent (Merck, Darmstadt, Germany). […] The microtiter plate was incubated for 10 min in the dark at room temperature, and the absorbance of the mixture was measured at 550 nm on a microplate reader (Synergy Multi-Mode Reader, BioTek, Winooski, United States of America). The quantity of nitrite was determined from a sodium nitrite standard curve, and the percentage of NO production was calculated based on the ability of each tested sample to inhibit nitric oxide production by LPS-stimulated RAW 264.7 cells compared to the control (cells treated with LPS without samples which was considered as 100% NO production). Additionally, the cell viability of treated cells was determined by using the MTT assay as previously described ([Mosmann, 1983]).

Data set [1] has as its system NO production in LPS-stimulated RAW 264.7 cells. As to the kind of experiment: Nitric oxide production inhibitory assay (Griess) in LPS-stimulated RAW 264.7 cells. Format: cell-based, murine. Particulars: for reduction of NO production: 100 μg/mL; for IC50: Mus musculus, RAW264.7, LPS (2 μg/mL), 24 h. On the procedure:
as §1
Nitric oxide (NO) production was evaluated in lipopolysaccharide (LPS)-stimulated RAW 264.7 cells by measuring the influence of tested compounds on the accumulation of nitrite, an indicator of NO in the cell supernatant, which can be detected with Griess reagent (Merck, Darmstadt, Germany). Briefly, the RAW 264.7 cells at their exponential growth phase were seeded at a density of 2×10^4 cells per well in 96 well-microtiter plates, and they were incubated overnight at 37°C in a 5% CO2 humidified environment to allow attachment. […] Then, culture medium containing LPS (2 μg/mL) was added to each well and further incubated for 24 h at 37°C in a 5% CO2 humidified environment. Thereafter, 100 μL of cell supernatant from each well were transferred into a new 96-well microtiter plate and an equal volume of Griess reagent was added according to protocol described by the manufacturer. The microtiter plate was incubated for 10 min in the dark at room temperature, and the absorbance of the mixture was measured at 550 nm on a microplate reader (Synergy Multi-Mode Reader, BioTek, Winooski, United States of America). The quantity of nitrite was determined from a sodium nitrite standard curve, and the percentage of NO production was calculated based on the ability of each tested sample to inhibit nitric oxide production by LPS-stimulated RAW 264.7 cells compared to the control (cells treated with LPS without samples which was considered as 100% NO production). Additionally, the cell viability of treated cells was determined by using the MTT assay as previously described ([Mosmann, 1983]).
In general terms: Nitrite, measured by Griess reagent, commonly stands in for NO production.

In the case of `CC1(C)CC[C@]2(C(=O)O)CC[C@]3(C)C(=CC[C@@H]4[C@@]5(C)CC[C@H](O)[C@@](C)(CO)[C@@H]5CC[C@]43C)[C@@H]2C1` [Compound 2, hederagenin], the IC50 is 8.92 µg/mL and 18.9 µM in the data set on MCF-7 cells; 24.9 µg/mL and 52.6 µM in the data set on HepG2 cells; 45.5 µg/mL and 96.3 µM with Vero cells; 40.1 µM and 19 µg/mL in the data set on A549 cells; 65.1 µg/mL and 138 µM in data set [1]. Further, in the data set on MCF-7 cells, the “SI values MCF7” value is listed as 5.11. Also, in the data set on HepG2 cells, the “SI values HepG2” value is 1.83. Besides, the “SI values A549” value in the data set with A549 cells is recorded as 2.40. Moreover, the “cell viability of LPS-stimulated RAW 264.7 cells” value (shortened to “cell viability”) in the data set with RAW 264.7 cells was “significantly (p < 0.05) reduced the cell viability”. Also, in data set [1], the “reduction of NO production” value is listed as “at least 50%”.
Take `C[C@@H]1CC[C@]2(C(=O)O)CC[C@]3(C(=O)O)C(=CCC4[C@@]5(C)CC[C@H](O[C@H]6O[C@H](C)[C@@H](O)[C@H](O)[C@H]6O)C(C)(C)C5CC[C@]43C)C2[C@H]1C` (stereo partly drawn) [Compound 6, quinovic acid 3-O-[α-D-quinovopyranoside]]: in the data set with MCF-7 cells, the concentration for half-maximal inhibition (IC50) was 5.96 µg/mL and 9.42 µM; the “SI values MCF7” value is recorded as 1.04. Moreover, in the data set on HepG2 cells, the IC50 is 41.9 µg/mL and 66.3 µM; the “SI values HepG2” value is listed as 0.14. The 50% inhibitory concentration (IC50) in the data set on Vero cells is 6.21 µg/mL and 9.81 µM. For the same molecule, the “selectivity (SI) towards non-cancerous Vero cells” value in the data set on Vero cells (cancer cells except A549 cells) is listed as at most 1. For the same molecule, in the data set on A549 cells, the IC50 is 3.08 µM and 1.96 µg/mL; the “SI values A549” value came to 3.17. Also, the “cell viability” value with RAW 264.7 cells is given as “significantly (p < 0.05) reduced the cell viability”. Further, in data set [1], the “reduction of NO production” value is “at least 50%”; the IC50 is 18.2 µg/mL and 28.7 µM.
`C[C@@H]1CC[C@]2(C(=O)O)CC[C@]3(C(=O)O)C(=CCC4[C@@]5(C)CC[C@H](O[C@@H]6O[C@H](C)[C@@H](O)[C@H](O)[C@H]6O)C(C)(C)C5CC[C@]43C)C2[C@H]1C` (stereo partly drawn) [Compound 9, quinovic acid 3-O-[β-D-quinovopyranoside]]: the half-maximal inhibitory concentration (IC50) with MCF-7 cells is 51.5 µg/mL and 81.4 µM; in the data set on HepG2 cells it was 47.2 µg/mL and 74.6 µM; in the data set with Vero cells, 47.1 µg/mL and 74.4 µM; in the data set on A549 cells, 69.9 µM and 44.2 µg/mL; in data set [1], 49 µg/mL and 77.4 µM. Moreover, the “SI values MCF7” value in the data set with MCF-7 cells worked out at 0.91. In the data set with HepG2 cells, the “SI values HepG2” value turned out to be 0.99. In addition, the “selectivity (SI) for all cancer cells towards non-cancerous Vero cells” value in the data set with Vero cells (all cancer types (MCF-7, HepG2, Caco-2, A549)) is recorded as at most 1. For the same molecule, the “SI values A549” value in the data set on A549 cells was 1.06. In addition, in the data set with RAW 264.7 cells, the “cell viability” value is recorded as “significantly (p < 0.05) reduced the cell viability”. The “reduction of NO production” value in data set [1] was “at least 50%”.
Turning to `C[C@]12COCC=C1C[C@H]1c3[nH]c4ccccc4c3CCN1C2=O` [Compound 10, latifoliamide C], the IC50 was 32.9 µg/mL and 107 µM with MCF-7 cells; 54.5 µg/mL and 177 µM in the data set on HepG2 cells; 65.8 µg/mL and 213 µM in the data set with Vero cells; 143 µM and 44.2 µg/mL in the data set on A549 cells; > 100 µg/mL and > 324 µM in data set [1]. Moreover, the “SI values MCF7” value with MCF-7 cells was 2.01. In addition, the “SI values HepG2” value in the data set on HepG2 cells stood at 1.20. For the same molecule, the “SI values A549” value in the data set with A549 cells is 1.49.
